Assay results taken from US20230111310A1, “CARBOXYLIC ACID DERIVATIVE-SUBSTITUTED IMINO ARYL COMPOUND, PREPARATION METHOD THEREFOR, HERBICIDAL COMPOSITION AND USE THEREOF” (Qingdao Kingagroot Chemical Compound Co., Ltd., priority 2020, published 2023).

How the values were obtained:
Assay in all cases: Weeding effect in post-emergence stage
Type in all cases: in vivo
Conditions in all cases: Dose 15 g/ha; level of fresh weight growth control rate
Abutilon theophrasti = tested on: Abutilon theophrasti
How it was run: (§1)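 Pot-grown weeds were sprayed at the 2-3 leaf stage, 2 weeks after sowing, with compound in acetone plus Tween 80 and 1.5 liter/ha methyl oleate emulsifiable concentrate, diluted in water. Doses were 500, 250, 125, 60, 30, 15, 7.5 g/ha. Growth control was scored after 3 weeks in greenhouse; mean of three replicates.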

Alopecurus japonicus = tested on: Alopecurus japonicus
How it was run: as §1

Digitaria sanguinalis = tested on: Digitaria sanguinalis
How it was run: as §1

Eleusine indica = tested on: Eleusine indica
How it was run: as §1

Setaria viridis = tested on: Setaria viridis
How it was run: as §1

Echinochloa crusgalli = tested on: Echinochloa crusgalli
How it was run: as §1

Structure (SMILES): CC(O/N=C/c1cc(-n2c(=O)cc(C(F)(F)F)n(C)c2=O)c(F)cc1Cl)C(=O)OC(C)(C)C (racemic) [Compound 202]
- Weeding effect in post-emergence stage, Abutilon theophrasti (Abutilon theophrasti): 5 (Level 5: growth control rate is above 85%)
- Weeding effect in post-emergence stage, Alopecurus japonicus (Alopecurus japonicus): 5 (Level 5: growth control rate is above 85%)
- Weeding effect in post-emergence stage, Digitaria sanguinalis (Digitaria sanguinalis): 5 (Level 5: growth control rate is above 85%)
- Weeding effect in post-emergence stage, Eleusine indica (Eleusine indica): 5 (Level 5: growth control rate is above 85%)
- Weeding effect in post-emergence stage, Setaria viridis (Setaria viridis): 5 (Level 5: growth control rate is above 85%)
- Weeding effect in post-emergence stage, Echinochloa crusgalli (Echinochloa crusgalli): 5 (Level 5: growth control rate is above 85%)

Structure (SMILES): CCCCCOC(=O)C(C)O/N=C/c1cc(-n2c(=O)cc(C(F)(F)F)n(C)c2=O)c(F)cc1Cl (racemic) [Compound 203]
- Weeding effect in post-emergence stage, Abutilon theophrasti (Abutilon theophrasti): 5 (Level 5: growth control rate is above 85%)
- Weeding effect in post-emergence stage, Alopecurus japonicus (Alopecurus japonicus): 5 (Level 5: growth control rate is above 85%)
- Weeding effect in post-emergence stage, Digitaria sanguinalis (Digitaria sanguinalis): 5 (Level 5: growth control rate is above 85%)
- Weeding effect in post-emergence stage, Eleusine indica (Eleusine indica): 5 (Level 5: growth control rate is above 85%)
- Weeding effect in post-emergence stage, Setaria viridis (Setaria viridis): 5 (Level 5: growth control rate is above 85%)
- Weeding effect in post-emergence stage, Echinochloa crusgalli (Echinochloa crusgalli): 5 (Level 5: growth control rate is above 85%)

Structure (SMILES): CCCCCCOC(=O)C(C)O/N=C/c1cc(-n2c(=O)cc(C(F)(F)F)n(C)c2=O)c(F)cc1Cl (racemic) [Compound 204]
- Weeding effect in post-emergence stage, Abutilon theophrasti (Abutilon theophrasti): 5 (Level 5: growth control rate is above 85%)
- Weeding effect in post-emergence stage, Alopecurus japonicus (Alopecurus japonicus): 5 (Level 5: growth control rate is above 85%)
- Weeding effect in post-emergence stage, Digitaria sanguinalis (Digitaria sanguinalis): 5 (Level 5: growth control rate is above 85%)
- Weeding effect in post-emergence stage, Eleusine indica (Eleusine indica): 5 (Level 5: growth control rate is above 85%)
- Weeding effect in post-emergence stage, Setaria viridis (Setaria viridis): 5 (Level 5: growth control rate is above 85%)
- Weeding effect in post-emergence stage, Echinochloa crusgalli (Echinochloa crusgalli): 5 (Level 5: growth control rate is above 85%)

Structure (SMILES): CCCCCCCOC(=O)C(C)O/N=C/c1cc(-n2c(=O)cc(C(F)(F)F)n(C)c2=O)c(F)cc1Cl (racemic) [Compound 205]
- Weeding effect in post-emergence stage, Abutilon theophrasti (Abutilon theophrasti): 5 (Level 5: growth control rate is above 85%)
- Weeding effect in post-emergence stage, Alopecurus japonicus (Alopecurus japonicus): 5 (Level 5: growth control rate is above 85%)
- Weeding effect in post-emergence stage, Digitaria sanguinalis (Digitaria sanguinalis): 5 (Level 5: growth control rate is above 85%)
- Weeding effect in post-emergence stage, Eleusine indica (Eleusine indica): 5 (Level 5: growth control rate is above 85%)
- Weeding effect in post-emergence stage, Setaria viridis (Setaria viridis): 5 (Level 5: growth control rate is above 85%)
- Weeding effect in post-emergence stage, Echinochloa crusgalli (Echinochloa crusgalli): 5 (Level 5: growth control rate is above 85%)

Structure (SMILES): CCCCCCCCOC(=O)C(C)O/N=C/c1cc(-n2c(=O)cc(C(F)(F)F)n(C)c2=O)c(F)cc1Cl (racemic) [Compound 206]
- Weeding effect in post-emergence stage, Abutilon theophrasti (Abutilon theophrasti): 5 (Level 5: growth control rate is above 85%)
- Weeding effect in post-emergence stage, Alopecurus japonicus (Alopecurus japonicus): 5 (Level 5: growth control rate is above 85%)
- Weeding effect in post-emergence stage, Digitaria sanguinalis (Digitaria sanguinalis): 5 (Level 5: growth control rate is above 85%)
- Weeding effect in post-emergence stage, Eleusine indica (Eleusine indica): 5 (Level 5: growth control rate is above 85%)
- Weeding effect in post-emergence stage, Setaria viridis (Setaria viridis): 5 (Level 5: growth control rate is above 85%)
- Weeding effect in post-emergence stage, Echinochloa crusgalli (Echinochloa crusgalli): 5 (Level 5: growth control rate is above 85%)

Structure (SMILES): CCCCCCC(C)OC(=O)C(C)O/N=C/c1cc(-n2c(=O)cc(C(F)(F)F)n(C)c2=O)c(F)cc1Cl (racemic) [Compound 207]
- Weeding effect in post-emergence stage, Abutilon theophrasti (Abutilon theophrasti): 5 (Level 5: growth control rate is above 85%)
- Weeding effect in post-emergence stage, Alopecurus japonicus (Alopecurus japonicus): 5 (Level 5: growth control rate is above 85%)
- Weeding effect in post-emergence stage, Digitaria sanguinalis (Digitaria sanguinalis): 5 (Level 5: growth control rate is above 85%)
- Weeding effect in post-emergence stage, Eleusine indica (Eleusine indica): 5 (Level 5: growth control rate is above 85%)
- Weeding effect in post-emergence stage, Setaria viridis (Setaria viridis): 5 (Level 5: growth control rate is above 85%)
- Weeding effect in post-emergence stage, Echinochloa crusgalli (Echinochloa crusgalli): 5 (Level 5: growth control rate is above 85%)

Structure (SMILES): C=CCOC(=O)C(C)O/N=C/c1cc(-n2c(=O)cc(C(F)(F)F)n(C)c2=O)c(F)cc1Cl (racemic) [Compound 208]
- Weeding effect in post-emergence stage, Abutilon theophrasti (Abutilon theophrasti): 5 (Level 5: growth control rate is above 85%)
- Weeding effect in post-emergence stage, Alopecurus japonicus (Alopecurus japonicus): 5 (Level 5: growth control rate is above 85%)
- Weeding effect in post-emergence stage, Digitaria sanguinalis (Digitaria sanguinalis): 5 (Level 5: growth control rate is above 85%)
- Weeding effect in post-emergence stage, Eleusine indica (Eleusine indica): 5 (Level 5: growth control rate is above 85%)
- Weeding effect in post-emergence stage, Setaria viridis (Setaria viridis): 5 (Level 5: growth control rate is above 85%)
- Weeding effect in post-emergence stage, Echinochloa crusgalli (Echinochloa crusgalli): 5 (Level 5: growth control rate is above 85%)

Structure (SMILES): C=CCCOC(=O)C(C)O/N=C/c1cc(-n2c(=O)cc(C(F)(F)F)n(C)c2=O)c(F)cc1Cl (racemic) [Compound 209]
- Weeding effect in post-emergence stage, Abutilon theophrasti (Abutilon theophrasti): 5 (Level 5: growth control rate is above 85%)
- Weeding effect in post-emergence stage, Alopecurus japonicus (Alopecurus japonicus): 5 (Level 5: growth control rate is above 85%)
- Weeding effect in post-emergence stage, Digitaria sanguinalis (Digitaria sanguinalis): 5 (Level 5: growth control rate is above 85%)
- Weeding effect in post-emergence stage, Eleusine indica (Eleusine indica): 5 (Level 5: growth control rate is above 85%)
- Weeding effect in post-emergence stage, Setaria viridis (Setaria viridis): 5 (Level 5: growth control rate is above 85%)
- Weeding effect in post-emergence stage, Echinochloa crusgalli (Echinochloa crusgalli): 5 (Level 5: growth control rate is above 85%)

Structure (SMILES): C#CCOC(=O)C(C)O/N=C/c1cc(-n2c(=O)cc(C(F)(F)F)n(C)c2=O)c(F)cc1Cl (racemic) [Compound 212]
- Weeding effect in post-emergence stage, Abutilon theophrasti (Abutilon theophrasti): 5 (Level 5: growth control rate is above 85%)
- Weeding effect in post-emergence stage, Alopecurus japonicus (Alopecurus japonicus): 5 (Level 5: growth control rate is above 85%)
- Weeding effect in post-emergence stage, Digitaria sanguinalis (Digitaria sanguinalis): 5 (Level 5: growth control rate is above 85%)
- Weeding effect in post-emergence stage, Eleusine indica (Eleusine indica): 5 (Level 5: growth control rate is above 85%)
- Weeding effect in post-emergence stage, Setaria viridis (Setaria viridis): 5 (Level 5: growth control rate is above 85%)
- Weeding effect in post-emergence stage, Echinochloa crusgalli (Echinochloa crusgalli): 5 (Level 5: growth control rate is above 85%)

Structure (SMILES): CC(O/N=C/c1cc(-n2c(=O)cc(C(F)(F)F)n(C)c2=O)c(F)cc1Cl)C(=O)OC1CCCC1 (racemic) [Compound 214]
- Weeding effect in post-emergence stage, Abutilon theophrasti (Abutilon theophrasti): 5 (Level 5: growth control rate is above 85%)
- Weeding effect in post-emergence stage, Alopecurus japonicus (Alopecurus japonicus): 5 (Level 5: growth control rate is above 85%)
- Weeding effect in post-emergence stage, Digitaria sanguinalis (Digitaria sanguinalis): 5 (Level 5: growth control rate is above 85%)
- Weeding effect in post-emergence stage, Eleusine indica (Eleusine indica): 5 (Level 5: growth control rate is above 85%)
- Weeding effect in post-emergence stage, Setaria viridis (Setaria viridis): 5 (Level 5: growth control rate is above 85%)
- Weeding effect in post-emergence stage, Echinochloa crusgalli (Echinochloa crusgalli): 5 (Level 5: growth control rate is above 85%)

Structure (SMILES): CC(O/N=C/c1cc(-n2c(=O)cc(C(F)(F)F)n(C)c2=O)c(F)cc1Cl)C(=O)OCCF (racemic) [Compound 216]
- Weeding effect in post-emergence stage, Abutilon theophrasti (Abutilon theophrasti): 5 (Level 5: growth control rate is above 85%)
- Weeding effect in post-emergence stage, Alopecurus japonicus (Alopecurus japonicus): 4 (Level 4: growth control rate is greater than or equal to 60% and less than 85%)
- Weeding effect in post-emergence stage, Digitaria sanguinalis (Digitaria sanguinalis): 5 (Level 5: growth control rate is above 85%)
- Weeding effect in post-emergence stage, Eleusine indica (Eleusine indica): 5 (Level 5: growth control rate is above 85%)
- Weeding effect in post-emergence stage, Setaria viridis (Setaria viridis): 5 (Level 5: growth control rate is above 85%)
- Weeding effect in post-emergence stage, Echinochloa crusgalli (Echinochloa crusgalli): 5 (Level 5: growth control rate is above 85%)

Structure (SMILES): CC(O/N=C/c1cc(-n2c(=O)cc(C(F)(F)F)n(C)c2=O)c(F)cc1Cl)C(=O)OCC(F)F (racemic) [Compound 217]
- Weeding effect in post-emergence stage, Abutilon theophrasti (Abutilon theophrasti): 5 (Level 5: growth control rate is above 85%)
- Weeding effect in post-emergence stage, Alopecurus japonicus (Alopecurus japonicus): 5 (Level 5: growth control rate is above 85%)
- Weeding effect in post-emergence stage, Digitaria sanguinalis (Digitaria sanguinalis): 5 (Level 5: growth control rate is above 85%)
- Weeding effect in post-emergence stage, Eleusine indica (Eleusine indica): 5 (Level 5: growth control rate is above 85%)
- Weeding effect in post-emergence stage, Setaria viridis (Setaria viridis): 5 (Level 5: growth control rate is above 85%)
- Weeding effect in post-emergence stage, Echinochloa crusgalli (Echinochloa crusgalli): 5 (Level 5: growth control rate is above 85%)

Structure (SMILES): CC(O/N=C/c1cc(-n2c(=O)cc(C(F)(F)F)n(C)c2=O)c(F)cc1Cl)C(=O)OCC(F)(F)F (racemic) [Compound 218]
- Weeding effect in post-emergence stage, Abutilon theophrasti (Abutilon theophrasti): 5 (Level 5: growth control rate is above 85%)
- Weeding effect in post-emergence stage, Alopecurus japonicus (Alopecurus japonicus): 5 (Level 5: growth control rate is above 85%)
- Weeding effect in post-emergence stage, Digitaria sanguinalis (Digitaria sanguinalis): 5 (Level 5: growth control rate is above 85%)
- Weeding effect in post-emergence stage, Eleusine indica (Eleusine indica): 5 (Level 5: growth control rate is above 85%)
- Weeding effect in post-emergence stage, Setaria viridis (Setaria viridis): 5 (Level 5: growth control rate is above 85%)
- Weeding effect in post-emergence stage, Echinochloa crusgalli (Echinochloa crusgalli): 5 (Level 5: growth control rate is above 85%)

Structure (SMILES): CC(O/N=C/c1cc(-n2c(=O)cc(C(F)(F)F)n(C)c2=O)c(F)cc1Cl)C(=O)OCC(C)(F)F (racemic) [Compound 220]
- Weeding effect in post-emergence stage, Abutilon theophrasti (Abutilon theophrasti): 5 (Level 5: growth control rate is above 85%)
- Weeding effect in post-emergence stage, Alopecurus japonicus (Alopecurus japonicus): 5 (Level 5: growth control rate is above 85%)
- Weeding effect in post-emergence stage, Digitaria sanguinalis (Digitaria sanguinalis): 5 (Level 5: growth control rate is above 85%)
- Weeding effect in post-emergence stage, Eleusine indica (Eleusine indica): 5 (Level 5: growth control rate is above 85%)
- Weeding effect in post-emergence stage, Setaria viridis (Setaria viridis): 5 (Level 5: growth control rate is above 85%)
- Weeding effect in post-emergence stage, Echinochloa crusgalli (Echinochloa crusgalli): 5 (Level 5: growth control rate is above 85%)

Structure (SMILES): CC(O/N=C/c1cc(-n2c(=O)cc(C(F)(F)F)n(C)c2=O)c(F)cc1Cl)C(=O)OCCC(F)(F)F (racemic) [Compound 221]
- Weeding effect in post-emergence stage, Abutilon theophrasti (Abutilon theophrasti): 5 (Level 5: growth control rate is above 85%)
- Weeding effect in post-emergence stage, Alopecurus japonicus (Alopecurus japonicus): 4 (Level 4: growth control rate is greater than or equal to 60% and less than 85%)
- Weeding effect in post-emergence stage, Digitaria sanguinalis (Digitaria sanguinalis): 5 (Level 5: growth control rate is above 85%)
- Weeding effect in post-emergence stage, Eleusine indica (Eleusine indica): 5 (Level 5: growth control rate is above 85%)
- Weeding effect in post-emergence stage, Setaria viridis (Setaria viridis): 5 (Level 5: growth control rate is above 85%)
- Weeding effect in post-emergence stage, Echinochloa crusgalli (Echinochloa crusgalli): 5 (Level 5: growth control rate is above 85%)
